In patent US12600696B2 (XENIOPRO GMBH, priority 2017, dated 2026):

What was measured:
[1] = tested on: Notch signaling (hNotch1ΔE, human Notch1 receptor) in HeLa cells; experiment: Notch reporter assay (luciferase luminescence readout in transfected HeLa cells); format: cell-based; conditions: Homo sapiens, 20 hours, relative to DMSO baseline level of 1.0, read-out: AVEw, weighted arithmetic mean of double-normalized Notch-reporter luciferase luminescence values (Activity Range)
Description: An according Notch-reporter assay, i.e. a luciferase-based luminescence readout, was used here to quantify the ability of the claimed small molecules to augment Notch signaling in a cellular system. For this purpose, HeLa cells, obtainable from the American Type Culture Collection (ATCC) under the accession number ATCC-CCL-2, were transiently transfected for 24 hours using FuGENE® HD (Promega, #E2311) as transfection reagent with expression vectors of a membrane-tethered form of the constitutively active intracellular domain of the human Notch1 receptor (hNotch1ΔE) to activate the signaling cascade (BPS Bioscience, human analogue to Notch Pathway Reporter Kit #60509 component C), a Firefly luciferase being expressed under the control of a Notch-responsive promoter to monitor Notch signaling (BPS Bioscience, Notch Pathway Reporter Kit #60509, CSL luciferase reporter vector from component A not premixed with Renilla luciferase vector), and a Renilla luciferase being constitutively expressed in a Notch signaling independent manner to include a measure for the cell number per sample (Promega, pRL-SV40, #E2231). HeLa cells were cultivated according to the protocol of the provider in DMEM medium (Fisherscientific, #11584456) containing 10% fetal bovine serum (Fisherscientific, #15517589). The transfection was carried out in a 100 mm-culture dish (StarLab, #CC7682-3394) with cells being properly attached to the plate at a cell confluency of 80-90% in a total volume of 7 mL culture medium. Per dish to be transfected, a transfection mix was prepared by adding to 238 μL Opti-MEM (Fisherscientific, #10149832) 40 μL of the hNotch1ΔE expression vector (100 ng/μL), 80 μL of the CSL luciferase reporter vector (40 ng/μL), 4 μL of the pRL-SV40-Renilla luciferase vector (10 ng/μL), and in the last step 18.1 μL of FuGENE® HD. After addition of FuGENE® HD the transfection mix was let stand for 15 min at room temperature and hereafter equally distributed into the culture dish. Subsequently, i.e. after 24 hours of transfection, the transfected cells (10.000 cells per well) were incubated with the test-compounds at a final concentration of 10 μM (diluted from 10 mM stock-solutions in DMSO to a final DMSO concentration of 0.1% v/v) or with the empty carrier DMSO at 0.1% v/v as control for 20 hours in 96-well plates suitable for luminescence readouts (CORNING, #3610). Hereafter, the cells were lysed with 30 μL per well of Passive Lysis Buffer (Promega, #E194A, component of Dual-Luciferase® Reporter Assay System, #E1910) and the Firefly as well as Renilla luciferase values were measured with a luminescence reader with applying 15 μL per well each of the corresponding enzyme substrates needed to create the luminescence signals (Promega, Dual-Luciferase® Reporter Assay System, #E1910).
The suitability of the assays for monitoring Notch signaling was controlled by additionally including a generally accepted commercial Notch inhibitor, i.e. DAPT, as negative control, as well as the reported Notch enhancer resveratrol (RES) as positive control (Pinchot et al., Cancer 2011, 117, 1386-1398; Truong et al., Ann. Surg. Oncol. 2011, 18, 1506-1511; Yu et al., Mol. Cancer Ther. 2013, 12, 1276-1287). Both control compounds were likewise tested at 10 μM.
Per single experiment the measurement was performed in six replicates per compound. For every compound, this experiment was repeated in three or more independent replicates. The values of the Notch-reporter luciferase were normalized by division through the corresponding individual Notch-independent Renilla values in order to eliminate the impact of variation in the absolute cell-numbers in between the samples. For every individual plate, a second normalization was performed against the equally weighted arithmetic mean (here abbreviated as AVE) of the six associated Renilla-normalized DMSO-control values within a single experiment in order to obtain the relative values to a baseline level of 1.0. […]

[2] = tested on: HL-60 cells (human acute myeloid leukemia cells); experiment: alamarBlue proliferation assay with HL-60 cells; format: cell-based; conditions: 120 h, 5 days, relative to DMSO baseline level of 1.0, read-out: AVEw, weighted arithmetic mean of normalized fluorescence intensity values (Activity Range), HL-60 proliferation
Description: The antiproliferative activities of compounds falling under formula I, formula II, formula III, formula IV and formula V were investigated on cells or cell lines originating from a disorder of the myeloid cell compartment, the neuroendocrine system, the cervix, and the mucosal epithelium, as well as from the skin epithelium. To this end, HL-60 cells, TT cells, HeLa cells, CAL-27 cells and human primary epidermal keratinocytes (HPEK) were seeded into 96-well plates suitable for fluorescence assays (CORNING #3598) at following initial cell numbers: 1000 cells per well for HL-60; 9000 cells per well for TT; 2000 cells per well for HeLa, 2000 cells per well for CAL-27, 2000 cells per well for HPEK. The cells were treated with compounds at indicated final concentrations (diluted from the 1000× stock-solutions in DMSO to a final DMSO concentration of 0.1% v/v) or with the empty carrier DMSO at 0.1% v/v as control for 5 days. At day 5 after starting the treatments the cells were subjected to the alamarBlue® Proliferation Assay (Bio-Rad Serotec GmbH, BUF012B) according to the protocol of the manufacturer. The readout was taken with a multi-well plate-reader in the fluorescence mode with applying a filter for excitation at 560 nm (band width 10 nm) and for emission at 590 nm (band width 10 nm). Resveratrol (RES) treatment was included as control for growth inhibition.
The assays were performed in duplicate or more replicates of independent single experiments each containing a six-fold replicate for every condition. For every individual plate, the measured fluorescence intensity values of the conditions with compound treatment were normalized against the corresponding equally weighted arithmetic mean of the fluorescence intensity values of the six DMSO treated control wells in order to obtain the relative values to a baseline level of 1.0. The statistical calculations were performed in analogy to the luciferase assay as described above. To this end, two independent outlier analyses were performed according to the methods by Peirce and Chauvenet (Ross, Journal of Engineering Technology 2003, 1-12). Outliers confirmed by at least one of the methods were excluded from the calculations but not more than one value out of six per compound within a single experiment. The weighted arithmetic mean AVEw for each compound was calculated from the normalized values over all independent replicates of the single experiments comprising the six replicates each. The corresponding standard deviation for the weighted arithmetic mean was calculated according to the method described by Bronstein et al. (Bronstein, Semendjajew, Musiol, Mühlig, Taschenbuch der Mathematik, 5th edition 2001 (German), publisher: Verlag Harri Deutsch, Frankfurt am Main and Thun) and was combined with the Gauß′ error propagation associated with the performed calculation for the normalization. The resulting standard deviation is herein referred to as “combined standard deviation”.
HL-60 cells were cultivated according to the protocol of the provider in RPMI 1640 medium (Fisherscientific, #11554526) containing 10% fetal bovine serum (Fisherscientific, #15517589).
A compound is considered as a growth inhibitor of HL-60 cells, if—at a reference concentration of 20 μM—the weighted arithmetic mean of the normalized fluorescence intensity values after addition of the corresponding combined standard deviation amounts to 0.9 or lower, in particular to 0.8 or lower, 0.7 or lower, 0.6 or lower, 0.4 or lower, and 0.2 or lower, relative to the overall basis level of 1.0. The overall basis level was calculated as the weighted arithmetic mean of all normalized values from the DMSO control measurements in analogy to the calculations performed for the test-compounds. The corresponding combined standard deviation for the DMSO values amounts to less than 1·10^−2.

Row | Compound | fold induction at 10 µM [1] | activity at 20 µM [2] [%]
1 | COC(=O)c1ccc(Oc2ccc(C3CC4CCC3CC4)cc2)cc1 (racemic) [Compound 044, (±)-Methyl 4-(4-(bicyclo[2.2.2]octan-2-yl)phenoxy)benzoate] | 1.3 to 1.4 | 40 to 60
2 | CCOC(=O)c1ccc(Oc2ccc(C3CC4CCC3C4)cc2)cc1 (racemic) [Compound 066, ethyl 4-(4-((1S,4R)-bicyclo[2.2.1]heptan-2yl)phenoxy)benzoate] | 1.3 to 1.4 | 40 to 60
3 | CCOC(=O)c1ccc(Oc2ccc(C3CC4CCC3CC4)cc2)cc1 (racemic) [Compound 067, ethyl 4-(4-((1s,4s)-bicyclo[2.2.2]octan-2-yl)phenoxy)benzoate] | 1.4 to 1.7 | 60 to 70
4 | CCOC(=O)c1ccc(Oc2ccc(C3CC4CCC3C4)cc2)nc1 (racemic) [Compound 133, ethyl 6-(4-((1S,4R)-bicyclo[2.2.1]heptan-2-yl)phenoxy)nicotinate] | 1.2 to 1.3 | 40 to 60
5 | CCOC(=O)c1ccc(Oc2ccc(C3CC4CCC3CC4)cc2)nc1 (racemic) [Compound 134, ethyl 6-(4-((1s,4s)-bicyclo[2.2.2]octan-2-yl)phenoxy)nicotinate] | 1.4 to 1.7 | 70 to 80
6 | CCC(C)(C)c1ccc(Oc2ccc(C(=O)OC)cc2)cc1 [Compound 030, Methyl 4-(4-(tert-Pentyl)phenoxy)benzoate] | ≥ 2 | 80 to 90
7 | COC(=O)c1ccc(Oc2ccc(C3CCCCC3)cc2)cc1 [Compound 041, methyl 4-(4-(cyclohexyl)phenoxy)benzoate] | 1.4 to 1.7 | 70 to 80
8 | COC(=O)c1ccc(Oc2ccc(C3C[C@@H]4CC[C@H]3C4)cc2)cc1 (stereo partly drawn) [Compound 043, methyl 4-(4-((1S,4R)-bicyclo[2.2.1]heptan-2-yl)phenoxy)benzoate] | 1.7 to 2 | 40 to 60
9 | COC(=O)c1ccc(Oc2ccc(C34CC5CC(CC(C5)C3)C4)cc2)cc1 [Compound 045, methyl 4-(4-((3r,5r,7r)-adamantan-1-yl)phenoxy)benzoate] | 1.7 to 2 | 40 to 60
10 | CCCCc1ccc(Oc2ccc(C(=O)O)cn2)cc1 [Compound 072, 6-(4-butylphenoxy)nicotinic acid] | 1.4 to 1.7 | 80 to 90
11 | CCCCCc1ccc(Oc2ccc(C(=O)O)cn2)cc1 [Compound 073, 6-(4-pentylphenoxy)nicotinic acid] | 1.4 to 1.7 | 80 to 90
12 | CC(C)c1ccc(Oc2ccc(C(=O)O)cn2)cc1 [Compound 075, 6-(4-isopropylphenoxy)nicotinic acid] | 1.4 to 1.7 | 80 to 90
13 | CCc1ccc(Oc2ccc(C(=O)OC)cn2)cc1 [Compound 092, methyl 6-(4-ethylphenoxy)nicotinate] | 1.2 to 1.3 | 80 to 90
14 | Cc1ccc(Oc2ccc(C(=O)N(C)C)cc2)cc1 [Compound 215, N,N-dimethyl-4-(p-tolyloxy)benzamide] | 1.1 to 1.2 | 70 to 80
15 | CCc1ccc(Oc2ccc(C(=O)N(C)C)cc2)cc1 [Compound 216, 4-(4-ethylphenoxy)-N,N-dimethylbenzamide] | 1.4 to 1.7 | 0 to 20
16 | CCCc1ccc(Oc2ccc(C(=O)N(C)C)cc2)cc1 [Compound 217, N,N-dimethyl-4-(4-propylphenoxy)benzamide] | 1.2 to 1.3 | 60 to 70
17 | CC(C)c1ccc(Oc2ccc(C(=O)N(C)C)cc2)cc1 [Compound 221, 4-(4-isopropylphenoxy)-N,N-dimethylbenzamide] | 1.1 to 1.2 | 40 to 60
18 | CN(C)C(=O)c1ccc(Oc2ccc(C(C)(C)C)cc2)cc1 [Compound 222, 4-(4-(tert-Butyl)phenoxy)-N,N-dimethylbenzamide] | 1.2 to 1.3 | 60 to 70
